The results in this text go back to ChEMBL document CHEMBL1155947, “Discovery of a novel series of benzoic acid derivatives as potent and selective human beta3 adrenergic receptor agonists with good oral bioavailability. 3. Phenylethanolaminotetraline (PEAT) skeleton containing biphenyl or biphenyl ether moiety” (J Med Chem, 2008).

Data set [1] concerns Canis familiaris. The data set is described as follows: Ratio of AUC for drug to AUC for 4-((7S)-7-{[(2R)-2-(3-Chlorophenyl)-2-hydroxyethyl]amino}-5,6,7,8-tetrahydro-2-naphthalenyl)benzoic acid hydrochloride in dog at 0.1 or 0.20 mg/kg, po by cassette dosing assay. The class given is ADME, organism-based, Canis lupus familiaris. More on the design: dose 0.2 mg/kg, route oral. The conditions noted are these: in vivo, 0.2 mg/kg.

Data set [2] can be described thus: Cmax in dog at 0.2 mg/kg, po by cassette assay. The class given is ADME, organism-based, Canis lupus familiaris. Further details: dose 0.2 mg/kg, route oral. The conditions noted are these: in vivo.
Data set [3] in a line: Terminal half life in dog at 0.1 mg/mL, iv by cassette assay. The class given is ADME, organism-based, Canis lupus familiaris. The following applies: in vivo.
The species entered for a further data set is Homo sapiens. The data set is described as follows: Ratio of EC50 for human cloned beta-1 adrenergic receptor to EC50 for human cloned beta3 adrenergic receptor.
Data set [4] has as its target Beta-3 adrenergic receptor (Homo sapiens, UniProt P13945). In words: Agonist activity at human cloned beta3 adrenergic receptor expressed in CHO cells assessed as cAMP accumulation. The class given is functional, cell-based.
The target of data set [5] is Beta-2 adrenergic receptor (Homo sapiens, UniProt P07550). In words: Agonist activity at human beta2 adrenergic receptor expressed in CHO cells assessed as cAMP accumulation. The data set is classed as functional, cell-based.
A short description of data set [6]: AUC (0 to 24 hrs) in dog at 0.2 mg/kg, po by cassette assay. The data set is classed as ADME, organism-based, Canis lupus familiaris. Further details: time < 24 hr, dose 0.2 mg/kg, route oral. The following applies: plasma.
Data set [7] addresses Beta-1 adrenergic receptor (Homo sapiens, UniProt P08588).
Description: Agonist activity at human cloned beta-1 adrenergic receptor expressed in CHO cells assessed as cAMP accumulation
Data set [8] can be described thus: Bioavailability in dog at 0.1 mg/mL, iv by cassette assay. The class given is ADME, organism-based, Canis lupus familiaris. The conditions noted are these: in vivo.
Data set [9] has as its system Canis familiaris. The data set is described as follows: Ratio of Cmax for drug to Cmax for 4-((7S)-7-{[(2R)-2-(3-Chlorophenyl)-2-hydroxyethyl]amino}-5,6,7,8-tetrahydro-2-naphthalenyl)benzoic acid hydrochloride in dog at 0.1 or 0.20 mg/kg, po by cassette dosing assay. The conditions noted are these: in vivo, 0.2 mg/kg. More on the design: dose 0.2 mg/kg, route oral. The class given is ADME, organism-based, Canis lupus familiaris.

A short description of data set [10]: Total clearance in dog at 0.1 mg/mL, iv by cassette assay. The conditions noted are these: in vivo. The data set is classed as ADME, organism-based, Canis lupus familiaris.
Data set [11] in a line: AUC (0 to 24 hrs) in rat at 1.0 mg/kg, po. The data set is classed as ADME, organism-based. More on the design: time < 24 hr, dose 1 mg/kg, route oral. The following applies: plasma.
The nature of data set [12]: Terminal half life in dog at 0.12 mg/kg, iv by cassette assay. The class given is ADME, organism-based, Canis lupus familiaris. Further details: dose 0.12 mg/kg, route intravenous. The conditions noted are these: in vivo.
The nature of data set [13]: Terminal half life in rat at 0.32 mg/kg, iv. The data set is classed as ADME, organism-based. Further details: dose 0.32 mg/kg, route intravenous. The following applies: in vivo.
A short description of data set [14]: Total clearance in rat at 0.32 mg/kg, iv. The data set is classed as ADME, organism-based. Further details: dose 0.32 mg/kg, route intravenous. The following applies: in vivo.
Data set [15] in a line: Oral bioavailability in dog at 0.12 mg/kg by cassette assay. The class given is ADME, organism-based, Canis lupus familiaris. The following applies: in vivo.
Data set [16] in a line: Oral bioavailability in rat at 0.32 mg/kg. The data set is classed as ADME, organism-based. The following applies: in vivo.
A short description of data set [17]: Total clearance in dog at 0.12 mg/kg, iv by cassette assay. The data set is classed as ADME, organism-based, Canis lupus familiaris. More on the design: dose 0.12 mg/kg, route intravenous. The conditions noted are these: in vivo.
Data set [18] in a line: Cmax in rat at 1.0 mg/kg, po. The class given is ADME, organism-based. The conditions noted are these: in vivo. Further details: dose 1 mg/kg, route oral.
A short description of data set [19]: Oral bioavailability in monkey at 0.32 mg/kg by cassette assay. The class given is ADME, organism-based, Macaca mulatta. The conditions noted are these: rhesus monkey, in vivo.
Data set [20] is described as follows: Cmax in rat at 0.5 mg/kg, po by cassette assay. The data set is classed as ADME, organism-based. Further details: dose 0.5 mg/kg, route oral. The following applies: in vivo.
Data set [21] in a line: Selectivity for human beta3 adrenergic receptor over dog beta3 adrenergic receptor.
The test system of data set [22] is Canis familiaris. In words: Inhibition of carbachol-induced increase of intravesical pressure in Beagle dog OAB model at 32 ug/kg,. The class given is functional. The following applies: Canis lupus familiaris.
Data set [23] can be described thus: Terminal half life in rat at 0.50 mg/kg, iv by cassette assay. The data set is classed as ADME, organism-based. More on the design: dose 0.5 mg/kg, route intravenous. The following applies: in vivo, 0.5 mg/kg.
A short description of data set [24]: Terminal half life in dog at 0.1 mg/kg, iv by cassette assay. The conditions noted are these: in vivo. The class given is ADME, organism-based, Canis lupus familiaris. Further details: dose 0.1 mg/kg, route intravenous.
A short description of data set [25]: Total clearance in rat at 0.50 mg/kg, iv by cassette assay. The class given is ADME, organism-based. Further details: dose 0.5 mg/kg, route intravenous. The conditions noted are these: in vivo, 0.5 mg/kg.
Data set [26] is described as follows: Cmax in monkey at 0.32 mg/kg, po. The class given is ADME, organism-based, Macaca mulatta. Further details: dose 0.32 mg/kg, route oral. The following applies: rhesus monkey, in vivo.
Data set [27] is described as follows: Terminal half life in monkey at 0.32 mg/kg, iv by cassette assay. The class given is ADME, organism-based, Macaca mulatta. More on the design: dose 0.32 mg/kg, route intravenous. The following applies: rhesus monkey, in vivo.
The nature of data set [28]: Total clearance in dog at 0.1 mg/kg, iv by cassette assay. The class given is ADME, organism-based, Canis lupus familiaris. More on the design: dose 0.1 mg/kg, route intravenous. The conditions noted are these: in vivo.
Data set [29] can be described thus: Total clearance in monkey at 0.32 mg/kg, iv by cassette assay. The class given is ADME, organism-based, Macaca mulatta. Further details: dose 0.32 mg/kg, route intravenous. The conditions noted are these: rhesus monkey, in vivo.
Data set [30] can be described thus: Protein binding in Beagle dog serum at 32 ug/kg, iv. The following applies: 0.032 mg/kg, read-out: PB (converted). The class given is ADME, organism-based, Canis lupus familiaris.
Data set [31] is described as follows: Oral bioavailability in dog at 0.1 mg/kg by cassette assay. The class given is ADME, organism-based, Canis lupus familiaris. The conditions noted are these: in vivo.
Data set [32] in a line: AUC (0 to 24 hrs) in rat at 0.5 mg/kg, po by cassette assay. The class given is ADME, organism-based. Further details: time < 24 hr, dose 0.5 mg/kg, route oral. The conditions noted are these: plasma.
Data set [33] is described as follows: Oral bioavailability in rat at 0.50 mg/kg by cassette assay. The conditions noted are these: in vivo, 0.5 mg/kg. The data set is classed as ADME, organism-based.
The target of data set [34] is Beta-3 adrenergic receptor (Canis lupus familiaris, UniProt O02662). In words: Agonist activity at dog beta3 adrenergic receptor expressed in CHO cells assessed as cAMP accumulation. The data set is classed as functional, cell-based.
Data set [35] can be described thus: AUC (0 to 24 hrs) in monkey at 0.32 mg/kg, po. The conditions noted are these: rhesus monkey, plasma. Further details: time < 24 hr, dose 0.32 mg/kg, route oral. The class given is ADME, organism-based, Macaca mulatta.

Structures are written as SMILES.

Beta-3 adrenergic receptor (Homo sapiens, UniProt P13945), sequence (P13945 whole entry): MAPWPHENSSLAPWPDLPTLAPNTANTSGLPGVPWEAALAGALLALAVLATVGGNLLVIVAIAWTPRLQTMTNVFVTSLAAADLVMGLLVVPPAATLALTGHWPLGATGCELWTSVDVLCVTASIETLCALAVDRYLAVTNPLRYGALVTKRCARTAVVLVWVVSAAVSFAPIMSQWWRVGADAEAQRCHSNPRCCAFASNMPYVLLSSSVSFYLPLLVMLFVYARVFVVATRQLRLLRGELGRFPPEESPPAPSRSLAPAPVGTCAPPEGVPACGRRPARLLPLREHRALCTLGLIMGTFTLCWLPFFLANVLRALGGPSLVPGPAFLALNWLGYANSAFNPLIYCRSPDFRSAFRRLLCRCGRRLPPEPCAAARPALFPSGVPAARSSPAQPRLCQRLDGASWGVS
Beta-1 adrenergic receptor, sequence (P08588 whole entry): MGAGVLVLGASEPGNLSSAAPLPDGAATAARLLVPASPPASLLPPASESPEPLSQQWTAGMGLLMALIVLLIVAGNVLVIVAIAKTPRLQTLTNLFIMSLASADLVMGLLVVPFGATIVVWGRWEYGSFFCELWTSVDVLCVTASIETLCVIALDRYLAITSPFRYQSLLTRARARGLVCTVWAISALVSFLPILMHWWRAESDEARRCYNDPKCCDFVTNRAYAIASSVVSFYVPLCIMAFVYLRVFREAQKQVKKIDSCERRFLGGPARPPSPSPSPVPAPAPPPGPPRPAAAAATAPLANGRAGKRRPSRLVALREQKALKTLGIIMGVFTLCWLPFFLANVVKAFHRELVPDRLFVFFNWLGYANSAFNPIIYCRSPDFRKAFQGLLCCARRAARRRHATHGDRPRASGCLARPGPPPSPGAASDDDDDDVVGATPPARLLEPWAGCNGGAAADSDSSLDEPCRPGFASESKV
Beta-2 adrenergic receptor, sequence (P07550 whole entry): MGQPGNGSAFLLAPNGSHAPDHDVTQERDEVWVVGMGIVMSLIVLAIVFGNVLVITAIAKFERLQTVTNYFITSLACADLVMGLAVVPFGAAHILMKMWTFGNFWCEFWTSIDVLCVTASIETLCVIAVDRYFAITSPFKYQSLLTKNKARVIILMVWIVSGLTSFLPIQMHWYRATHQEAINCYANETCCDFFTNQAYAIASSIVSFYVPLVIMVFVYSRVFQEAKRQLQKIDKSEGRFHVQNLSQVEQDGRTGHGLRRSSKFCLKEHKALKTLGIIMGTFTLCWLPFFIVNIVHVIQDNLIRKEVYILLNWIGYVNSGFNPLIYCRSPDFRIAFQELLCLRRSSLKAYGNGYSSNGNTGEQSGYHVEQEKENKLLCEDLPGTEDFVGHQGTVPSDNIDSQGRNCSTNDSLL
Beta-3 adrenergic receptor (Canis lupus familiaris, UniProt O02662), sequence (O02662 whole entry): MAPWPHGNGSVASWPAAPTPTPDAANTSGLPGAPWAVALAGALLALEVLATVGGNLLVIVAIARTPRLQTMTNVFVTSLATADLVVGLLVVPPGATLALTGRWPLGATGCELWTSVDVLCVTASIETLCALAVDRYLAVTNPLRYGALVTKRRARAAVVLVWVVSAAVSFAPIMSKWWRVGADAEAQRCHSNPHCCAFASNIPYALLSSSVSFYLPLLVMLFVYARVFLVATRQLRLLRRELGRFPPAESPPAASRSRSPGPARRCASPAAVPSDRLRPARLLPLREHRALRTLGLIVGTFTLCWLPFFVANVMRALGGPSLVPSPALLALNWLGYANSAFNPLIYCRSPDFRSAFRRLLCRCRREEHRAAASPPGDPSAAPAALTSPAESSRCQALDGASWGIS

As for `O=C(O)c1ccc(-c2ccc3c(c2)C[C@@H](NC[C@H](O)c2cccc(Cl)c2)CC3)cc1`, the “Ratio AUC” value with Canis familiaris [1] is on record as 1. In data set [2], this compound displayed a Cmax of 97.4 ng/mL. The compound further gave a half-life in [3] of 12.2 h. The Ratio EC50 in the data set listed under Homo sapiens was more than 357. Also, the figures for the EC50 in [4], in [5] and in data set [7] were 2.8 nM, more than 1000 nM and more than 1000 nM, respectively. The same compound had an AUC(0-t) at 24 h in [6] of 1980 ng·h/mL. The same compound came in with a bioavailability in data set [8] of 71%. In addition, in the data set on Canis familiaris [9], the Ratio is given as 1. This compound also had a clearance in data set [10] of 1.2 mL/min/kg.
As for `O=C(O)COc1ccc(-c2ccc3c(c2)C[C@@H](NC[C@H](O)c2cccc(Cl)c2)CC3)cc1`, the Cmax in data set [2] turned out to be 21.8 ng/mL. Also, the half-life in data set [3] was 1.9 h. Also, the Ratio EC50 in the data set filed under Homo sapiens is more than 170. Besides, the EC50 was 5.8 nM in data set [4], more than 1000 nM in data set [5] and more than 1000 nM in data set [7]. In [6], this compound gave an area under the curve AUC(0-t) at 24 h of 197 ng·h/mL. This compound displayed a bioavailability in [8] of 48%. In [10], this compound came in with a clearance of 8.3 mL/min/kg.
Turning to `Cc1ccc([C@@H](O)CN[C@H]2CCc3ccc(-c4ccc(C(=O)O)cc4)cc3C2)cc1`, the “Ratio AUC” value in the data set with Canis familiaris [1] worked out at 0.77. Besides, in the data set listed under Homo sapiens, the Ratio EC50 is more than 1260. In addition, the results for the half-maximal effective concentration (EC50) in data set [4] and in data set [7] were 0.79 nM and more than 1000 nM, respectively. The Ratio with Canis familiaris [9] is 1.06.
`COc1cc(-c2ccc3c(c2)C[C@@H](NC[C@H](O)c2ccc(Cl)cc2)CC3)ccc1C(=O)O`: the “Ratio AUC” value in the data set with Canis familiaris [1] is reported as 0.53. For the same compound, in the data set filed under Homo sapiens, the Ratio EC50 is more than 1280. Also, the EC50 is 0.78 nM in data set [4] and more than 1000 nM in data set [7]. Also, the Ratio with Canis familiaris [9] is 0.62.
For the compound `O=C(O)COc1ccc2c(c1)C[C@@H](NC[C@H](O)c1cccc(Cl)c1)CC2`, the AUC(0-t) at 24 h in data set [11] came to 177 ng·h/mL; in data set [6], 902 ng·h/mL. Moreover, the half-life in data set [12] is 3.8 h; in data set [13] it was 1.18 h. The clearance amounted to 52.6 mL/min/kg in data set [14] and 3 mL/min/kg in [17]. In addition, the Cmax worked out at 92.5 ng/mL in data set [2] and 28.1 ng/mL in [18]. For the same compound, the Ratio EC50 in the data set filed under Homo sapiens stood at 38. Also, the EC50 in [4] is 39 nM; in data set [5] it was more than 10000 nM; in data set [7], 1500 nM. Moreover, the bioavailability in [15] is 83.2%; in data set [16], 60%.
As to `O=C(O)c1ccc(-c2ccc3c(c2)C[C@@H](NC[C@H](O)c2ccc(Cl)cc2)CC3)c(F)c1`, the “Ratio AUC” value in the data set with Canis familiaris [1] stood at 1.01. Further, the Ratio EC50 in the data set filed under Homo sapiens was 700. Besides, the EC50 in data set [4] was determined as 1.4 nM; in data set [7], 980 nM. Besides, the Ratio with Canis familiaris [9] turned out to be 1.13.
Regarding `O=C(O)c1ccc(-c2ccc3c(c2)C[C@@H](NC[C@H](O)c2ccc(Cl)cc2)CC3)cc1`, the bioavailability was 81.7% in [19], more than 95% in data set [31] and 63.4% in data set [33]. Also, the peak concentration (Cmax) in [20] was found to be 65 ng/mL; in data set [2], 113 ng/mL; in data set [26] it was 91.2 ng/mL. For the same compound, in data set [21], the Selectivity ratio was determined as 65.8. In the data set with Canis familiaris [22], this compound had an inhibition in vivo at 0.032 mg/kg of 33%. Also, the “Ratio AUC” value in the data set with Canis familiaris [1] stood at 1.25. Further, the half-life in data set [23] was 13.6 h; in data set [24], 14.3 h; in [27] it was 7.7 h. The results for the clearance in [25], in data set [28] and in [29] were 11.4 mL/min/kg, 1.7 mL/min/kg and 6.7 mL/min/kg, respectively. Also, the Ratio EC50 in the data set listed under Homo sapiens worked out at 2410. Besides, the 50% effective concentration (EC50) is 0.38 nM in data set [4], more than 1000 nM in [5], 917 nM in data set [7] and 25 nM in [34]. In addition, in data set [30], the fraction unbound is 0.03. Moreover, the figures for the exposure AUC(0-t) at 24 h in data set [6], in data set [32] and in data set [35] were 1980 ng·h/mL, 470 ng·h/mL and 722 ng·h/mL, respectively. The Ratio in the data set on Canis familiaris [9] was found to be 0.71.
